From patent US10703764B2, “Benzopiperazine compositions as BET bromodomain inhibitors” (FORMA Therapeutics, Inc., priority 2013, dated 2020)

Key:
[1] = molecular target: T1, BRD4 BD2 (Homo sapiens, UniProt O60885); assay: AlphaScreen binding assay, BRD4 Bromodomain 2
T1 construct: made in house
Method: (§1) The binding of Example compounds to BRD4 Bromodomain 1 and BRD4 Bromodomain 2 was assessed using 384-well AlphaScreen assay technology. His-epitope tagged BRD4 BD144-168 and BRD4 BD2333-460 were cloned, expressed, and purified to homogeneity. BRD4 BD1 and BRD4 BD2 binding and inhibition was assessed by monitoring the engagement of biotinylated Histone H4 (1-21) K5/8/12/16 tetra-acetylated peptide with the targets using the AlphaScreen technology (PerkinElmer). Specifically, in a 384-well black or white flat bottom plate, BRD4 BD1 (50 nM final) or BRD4 BD2 (100 nM final) was combined with peptide (50 nM final for BD1 or 100 nM final for BD2) in 50 mM HEPES (pH 7.3), 100 mM NaCl, 0.1% (w/v) BSA, and 0.01% (w/v) Triton X-100 either in the presence of DMSO (final 1.25% DMSO) or compound dilution series in DMSO. Alpha streptavidin donor beads and Nickel-chelate acceptor beads were added to a final concentration of 10 μg/ml each. After a minimum of 1 hour equilibration, plates were read on a BMG PHERAstar FS multi-label reader (BMG LabTech). The half maximal inhibitory concentration (IC50) values were calculated using IDBS Activity Base software with a four parameter logistic curve fit by the equation y=A+((B−A)/(1+((C/x)^D))), wherein A denotes the bottom plateau of the curve, B denotes the top plateau of the curve, C denotes the x value at the middle of the curve, D denotes the slope factor, x denotes the original known x values, and y denotes the original known y values. Data was fitted using the Levenburg Marquardt algorithm.

[2] = molecular target: T2, BRD4 BD1 (Homo sapiens, UniProt O60885); assay: AlphaScreen binding assay, BRD4 Bromodomain 1
T2 construct: made in house
Method: as §1

| IC50 [1] [µM] | IC50 [2] [µM] | Structure (SMILES) |
| --- | --- | --- |
| 0.05 to 0.5 | 1 to 10 | CC(=O)N1c2ccc(-c3cnn(C4COC4)c3)cc2N(C(=O)[C@@H]2CC2(Cl)Cl)C[C@@H]1C (single isomer, unassigned) [Example I-112] |
| > 0.5 | > 10 | CC(=O)N1c2ccc(-c3cnn(C4COC4)c3)cc2N(C(=O)[C@H]2CC2(Cl)Cl)C[C@@H]1C (single isomer, unassigned) [Example I-113] |
| 0.05 to 0.5 | 1 to 10 | CC[C@H]1CN(C(=O)c2ccco2)c2cc(-c3ccc(S(C)(=O)=O)cc3)ccc2N1C(C)=O [Example I-6, (S)-1-(2-ethyl-4-(furan-2-carbonyl)-6-(4-(methylsulfonyl)phenyl)-3,4-dihydroquinoxalin-1(2H)-yl)ethan-1-one] |
| > 0.5 | > 10 | CC(=O)N1c2ccc(-c3ccc(S(C)(=O)=O)cc3)cc2N(C(=O)c2ccco2)CC1CF (stereo not drawn) [Example I-7, 1-(2-(fluoromethyl)-4-(furan-2-carbonyl)-6-(4-(methylsulfonyl)phenyl)-3,4-dihydroquinoxalin-1(2H)-yl)ethan-1-one] |
| 0.05 to 0.5 | 1 to 10 | CC(=O)N1c2ccc(-c3cnn(C4COC4)c3)cc2N(C(=O)C2CCC2)C[C@@H]1C [Example I-11, (S)-1-(4-(cyclobutanecarbonyl)-2-methyl-6-(1-(oxetan-3-yl)-1H-pyrazol-4-yl)-3,4-dihydroquinoxalin-1(2H)-yl)ethanone] |
| < 0.05 | 0.1 to 1 | CC(=O)N1c2ccc(-c3ccc(S(C)(=O)=O)cc3)cc2N(C(=O)OC2CCC(F)(F)CC2)C[C@@H]1C [Example I-32, (S)-4,4-difluorocyclohexyl 4-acetyl-3-methyl-7-(4-(methylsulfonyl)phenyl)-3,4-dihydroquinoxaline-1(2H)-carboxylate] |
| > 0.5 | 1 to 10 | CC(=O)N1c2ccc(-c3ccc(S(C)(=O)=O)cc3)cc2N(c2ncccn2)C[C@@H]1C [Example I-45, (S)-1-(2-methyl-6-(4-(methylsulfonyl)phenyl)-4-(pyrimidin-2-yl)-3,4-dihydroquinoxalin-1(2H)-yl)ethanone] |
| < 0.05 | 1 to 10 | CC(=O)N1c2ccc(-c3ccc(S(C)(=O)=O)cc3)cc2N(c2ccccn2)C[C@@H]1C [Example I-47, (S)-1-(2-methyl-6-(4-(methylsulfonyl)phenyl)-4-(pyridin-2-yl)-3,4-dihydroquinoxalin-1 (2H)-yl)ethan-1-one] |
| 0.05 to 0.5 | 1 to 10 | CC(=O)N1c2ccc(-c3ccc(S(C)(=O)=O)cc3)cc2N(c2ncc3ccccc3n2)C[C@@H]1C [Example I-48, (S)-1-(2-methyl-6-(4-(methylsulfonyl)phenyl)-4-(quinazolin-2-yl)-3,4-dihydroquinoxalin-1(2H)-yl)ethanone] |
| > 0.5 | 1 to 10 | CC(=O)N1c2ccc(-c3ccc(S(C)(=O)=O)cc3)cc2N(c2nccc(-c3ccccc3)n2)C[C@@H]1C [Example I-49, (S)-1-(2-methyl-6-(4-(methylsulfonyl)phenyl)-4-(4-phenylpyrimidin-2-yl)-3,4-dihydroquinoxalin-1(2H)-yl)ethanone] |
| > 0.5 | 1 to 10 | CC(=O)N1c2ccc(-c3ccc(S(C)(=O)=O)cc3)cc2N(c2ncc(-c3ccccc3)cn2)C[C@@H]1C [Example I-50, (S)-1-(2-methyl-6-(4-(methylsulfonyl)phenyl)-4-(5-phenylpyrimidin-2-yl)-3,4-dihydroquinoxalin-1(2H)-yl)ethanone] |
| > 0.5 | > 10 | CC(=O)N1c2ccc(-c3cnn(-c4nc5ccccc5o4)c3)cc2N(c2nc3ccccc3o2)C[C@@H]1C [Example I-56, (S)-1-(4-(benzo[d]oxazol-2-yl)-6-(1-(benzo[d]oxazol-2-yl)-1H-pyrazol-4-yl)-2-methyl-3,4-dihydroquinoxalin-1(2H)-yl)ethanone] |
| 0.05 to 0.5 | > 10 | CC(=O)N1c2cnc(-c3ccc(S(C)(=O)=O)cc3)cc2N(C(=O)c2ccco2)C[C@@H]1C [Example I-57, (S)-1-(1-(furan-2-carbonyl)-3-methyl-7-(4-(methylsulfonyl)phenyl)-2,3-dihydropyrido[3,4-b]pyrazin-4(1H)-yl)ethanone] |
| > 0.5 | 1 to 10 | CC(=O)N1c2cnc(-c3ccc(S(C)(=O)=O)cc3)cc2N(C(=O)OC(C)C)C[C@@H]1C [Example I-58, isopropyl (S)-4-acetyl-3-methyl-7-(4-(methylsulfonyl)phenyl)-3,4-dihydro pyrido[3,4-b]pyrazine-1 (2H)-carboxylate] |
| > 0.5 | 1 to 10 | CC(=O)N1c2ccc(-c3cnn(C4COC4)c3)cc2N(C(=O)OCC2(C)COC2)C[C@@H]1C [Example I-61, (S)-(3-methyloxetan-3-yl)methyl 4-acetyl-3-methyl-7-(1-(oxetan-3-yl)-1H-pyrazol-4-yl)-3,4-dihydroquinoxaline-1(2H)-carboxylate] |
| 0.05 to 0.5 | 1 to 10 | CCC1(COC(=O)N2C[C@H](C)N(C(C)=O)c3ccc(-c4cnn(C5COC5)c4)cc32)COC1 [Example I-63, (S)-(3-ethyloxetan-3-yl)methyl 4-acetyl-3-methyl-7-(1-(oxetan-3-yl)-1H-pyrazol-4-yl)-3,4-dihydroquinoxaline-1(2H)-carboxylate] |
| 0.05 to 0.5 | 1 to 10 | CC(=O)N1c2ccc(-c3cnn(C4COC4)c3)cc2N(C(=O)OCC2COC2)C[C@@H]1C [Example I-64, (S)-oxetan-3-ylmethyl 4-acetyl-3-methyl-7-(1-(oxetan-3-yl)-1H-pyrazol-4-yl)-3,4-dihydroquinoxaline-1(2H)-carboxylate] |
| > 0.5 | > 10 | CC(=O)N1c2ccc(-c3cnn(C4COC4)c3)cc2N(C(=O)OCCC2COC2)C[C@@H]1C [Example I-67, (S)-2-(oxetan-3-yl)ethyl 4-acetyl-3-methyl-7-(1-(oxetan-3-yl)-1H-pyrazol-4-yl)-3,4-dihydroquinoxaline-1(2H)-carboxylate] |
| 0.05 to 0.5 | 0.1 to 1 | CC(=O)N1c2ccc(-c3cnn(C4COC4)c3)cc2N(C(=O)OCC(C)(F)F)C[C@@H]1C [Example I-68, (S)-2,2-difluoropropyl 4-acetyl-3-methyl-7-(1-(oxetan-3-yl)-1H-pyrazol-4-yl)-3,4-dihydroquinoxaline-1(2H)-carboxylate] |
| > 0.5 | 1 to 10 | CC(=O)N1c2ccc(-c3cnn(C4COC4)c3)cc2N(C(=O)OC2CC3(COC3)C2)C[C@@H]1C [Example I-70, 2-oxaspiro[3.3]heptan-6-yl (3S)-4-acetyl-3-methyl-7-[1-(oxetan-3-yl)-1H-pyrazol-4-yl]-1,2,3,4-tetrahydroquinoxaline-1-carboxylate] |
| 0.05 to 0.5 | 1 to 10 | CC(=O)N1c2ccc(-c3cnn(C4COC4)c3)cc2N(C(=O)OCC2CC2(C)C)C[C@@H]1C (stereo partly drawn) [Example I-73, (2,2-dimethylcyclopropyl)methyl (3S)-4-acetyl-3-methyl-7-(1-(oxetan-3-yl)-1H-pyrazol-4-yl)-3,4-dihydroquinoxaline-1(2H)-carboxylate] |
| > 0.5 | 1 to 10 | CC(=O)N1c2ccc(-c3cnn(C4COC4)c3)cc2N(C(=O)OCC2CC2(F)F)C[C@@H]1C (stereo partly drawn) [Example I-75, (3S)-(2,2-difluorocyclopropyl)methyl 4-acetyl-3-methyl-7-(1-(oxetan-3-yl)-1H-pyrazol-4-yl)-3,4-dihydroquinoxaline-1(2H)-carboxylate] |
| 0.05 to 0.5 | 1 to 10 | CC(=O)N1c2ccc(-c3cnn(C4COC4)c3)cc2N(C(=O)OC2(C)CC2)C[C@@H]1C [Example I-76, (S)-1-methylcyclopropyl 4-acetyl-3-methyl-7-(1-(oxetan-3-yl)-1H-pyrazol-4-yl)-3,4-dihydroquinoxaline-1(2H)-carboxylate] |
| > 0.5 | 1 to 10 | CC(=O)N1c2ccc(-c3cnn(C4COC4)c3)cc2N(C(=O)OCC(F)F)C[C@@H]1C [Example I-84, (S)-2,2-difluoroethyl 4-acetyl-3-methyl-7-(1-(oxetan-3-yl)-1H-pyrazol-4-yl)-3,4-dihydroquinoxaline-1(2H)-carboxylate] |
| 0.05 to 0.5 | 1 to 10 | C[C@H]1CN(c2nc3ccccc3o2)c2cc(-c3cnn(C4CC4)c3)ccc2N1C(=O)C1CC1 [Example I-92, (S)-(4-(benzo[d]oxazol-2-yl)-6-(1-cyclopropyl-1H-pyrazol-4-yl)-2-methyl-3,4-dihydroquinoxalin-1 (2H)-yl)(cyclopropyl)methanone] |
| > 0.5 | > 10 | C[C@H]1CN(C(=O)c2ccco2)c2cc(-c3ccc(S(C)(=O)=O)cc3)ccc2N1S(C)(=O)=O [Example I-96, (S)-furan-2-yl(3-methyl-4-(methylsulfonyl)-7-(4-(methylsulfonyl)phenyl)-3,4-dihydroquinoxalin-1(2H)-yl)methanone] |
| > 0.5 | > 10 | CC(=O)N1c2ccc(Oc3ccccc3)nc2N(C(=O)C2CC2)C[C@@H]1C [Example I-97, (S)-1-(4-(cyclopropanecarbonyl)-2-methyl-6-phenoxy-3,4-dihydropyrido[2,3-b]pyrazin-1(2H)-yl)ethanone] |
